Series [1] has as its target T1, E1-STS (Homo sapiens, UniProt P08842).
T1 sequence (P08842 22-583): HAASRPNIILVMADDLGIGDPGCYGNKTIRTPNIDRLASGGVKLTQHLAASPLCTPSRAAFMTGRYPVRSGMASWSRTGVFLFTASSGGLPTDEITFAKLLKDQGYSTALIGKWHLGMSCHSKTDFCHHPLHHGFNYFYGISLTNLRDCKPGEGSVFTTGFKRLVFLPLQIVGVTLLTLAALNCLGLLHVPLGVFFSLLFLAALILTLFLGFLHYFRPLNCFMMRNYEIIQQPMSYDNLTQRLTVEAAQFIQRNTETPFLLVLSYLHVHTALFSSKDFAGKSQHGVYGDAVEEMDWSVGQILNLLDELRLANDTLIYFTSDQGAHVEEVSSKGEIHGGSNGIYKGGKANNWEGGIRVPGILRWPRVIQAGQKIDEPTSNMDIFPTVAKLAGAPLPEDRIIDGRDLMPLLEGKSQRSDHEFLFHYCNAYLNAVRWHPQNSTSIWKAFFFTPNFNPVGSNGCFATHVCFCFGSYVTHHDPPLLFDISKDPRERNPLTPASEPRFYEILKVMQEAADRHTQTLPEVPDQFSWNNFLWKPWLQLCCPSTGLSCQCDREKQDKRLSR
The conditions noted are these: cited from earlier work.

Series [2] has as its target T1, E1-STS. More on the design: E1-STS activity in intact MCF-7 cells; endogenous in cells; host or cells: MCF-7 cells (intact). The conditions noted are these: intact MCF-7 cells, at 0.1 nM; cited from earlier work.
Series [3] concerns the target T2, dehydroepiandrosterone sulphatase (DHEA-STS) (Homo sapiens, UniProt P08842).
T2 sequence (P08842 22-583): T1 sequence (P08842 22-583)
The conditions noted are these: cited from earlier work.

For series [4] the following is noted: rats; cited from earlier work.
Series [5] concerns tumours derived from MCF 7STS cells. The series is classed as in vivo. To be noted: initial experiments, nude mice, FIG. 5.
Another series has as its target T3, STS (Homo sapiens, UniProt P08842).
T3 construct: STS activity in peripheral and tumour tissues in postmenopausal women with breast cancer; from tissue; host or cells: peripheral and breast tumour tissues of patients
T3 sequence (P08842 22-583): T1 sequence (P08842 22-583)
In words: Phase I trial: STS activity in peripheral and tumour tissues. In kind it is in vivo. The conditions noted are these: postmenopausal women with breast cancer. An excerpt:
(§1) In addition to the aromatase pathway for the synthesis of estrogens in postmenopausal women, the sulfatase route is also important of the formation of steroids with potent estrogenic properties. Steroid sulfatase (STS) is responsible for the hydrolysis of estrone sulfate (E1S) and dehydroepiandrosterone sulfate (DHEAS) to estrone (E1) and DHEA respectively, which can be reduced in the body to estradiol (E2) and androstenediol (Adiol), both of which have potent estrogenic properties (FIGS. 3 & 4; reviewed in Reed et al., Endocrine Reviews, 256:171-202, 2005).

Series [6] deals with tumours derived from MCF-7AROM cells. Kind of series: Study 2: growth of tumours derived from MCF-7AROM cells in nude mice. In kind it is in vivo. The conditions noted are these: Study 2, A4 plus E2S stimulated; oral administration; letrozole 0.1 mg/kg; FIGS. 9-11. Here is the method: (§2) Ovariectomised, athymic female MF-1 nude mice (nu/nu) (age 6-8 weeks) were obtained from Harlan Olac. Twenty four hours before the inoculation of MCF-7 cells animals were injected s.c. with androstenedione (A4) or estradiol sulfate (E2S). On the day of inoculation MCF-7 cells (50 μl in Matrigel) were injected s.c. into the flanks of mice. After cell inoculation mice were injected with A4 and E2S and received another injection of these steroids 24 h later. Mice then received A4 plus E2S 3 times per week until the end of the study. When tumours had reached approximately 80 mm^3 dosing was initiated with compounds being administered orally (100 μl; vehicle 10% THF: 90% propylene glycol). Tumour measurements and the weight of animals were recorded weekly.
(§3) MCF-7 cells were routinely cultured in RPMI with 10% FCS. The cDNAs for either the aromatase or STS were cloned into the pCl-Neo vector which contains the neomycin resistant gene and transfected into MCF-7 cells. Stable clones were selected using G418 and cell lines established and evaluated for enzyme expression and activity.
(§4) This study was similar to the previous one with the exception that MCF-7STS or MCF-7AROM cells (1×10^7) were inoculated into different flanks of the same animals. The doses of A4 and E2S were increased to 100 μg for each compound.

Series [7] is classed as in vivo, mice. Here is the method: as §2, §4
The nature of series [8]: Phase I trial: serum steroid levels. The series is classed as in vivo. To be noted: postmenopausal women with breast cancer.
Excerpt: The assay for the determination of androstenedione, testosterone, E1 and E2 was the gas chromatographic tandem mass spectroscopic method of Wang et al., (2005). Recombinant cell ultra-sensitive bioassay for measurements of estrogens in postmenopausal women J Clin Endocrinol Metab 90: 1407-1413, 2005.
as §1, with “2005). […] This provides evidence for an aromatase independent pathway.” for “2005).”

Series [9] has as its system tumours derived from MCF-7STS cells. Kind of series: Study 2: growth of tumours derived from MCF-7STS cells in nude mice. In kind it is in vivo. The conditions noted are these: Study 2, A4 plus E2S stimulated; oral administration; letrozole 0.1 mg/kg; FIGS. 9-11. The protocol: as §2, §3, §4
The format of series [10] is in vivo. To be noted: for toxic effects (animal growth): Study 1, FIG. 7. The protocol:
as §2
For this study MCF-7 cells over-expressing aromatase or STS were mixed and inoculated (5×10^6 cells) in Matrigel into the flanks of nude mice. A similar number of MCF-7WT cells were inoculated into the other flank. For this study growth of tumours was stimulated by s.c. injection of A4 (50 μg) and E2S (50 μg) in 50 μl vehicle.

The subject of the next series is MCF-7WT tumours. Kind of series: Study 1: MCF-7WT tumour growth in nude mice. The conditions noted are these: Study 1, A4 plus E2S stimulated; oral; letrozole 0.1 mg/kg, STX213 10 mg/kg p.o. 5/7 per week; FIG. 6. In kind it is in vivo. Here is the method: as §2, §3
(§5) For this study MCF-7 cells over-expressing aromatase or STS were mixed and inoculated (5×10^6 cells) in Matrigel into the flanks of nude mice. A similar number of MCF-7WT cells were inoculated into the other flank. […]

Series [11] deals with MCF-7STS+MCF-7AROM tumours. In words: Study 1: MCF-7STS+MCF-7AROM tumour growth in nude mice. The conditions noted are these: Study 1, A4 plus E2S stimulated; oral; letrozole 0.1 mg/kg, STX213 10 mg/kg p.o. 5/7 per week; FIG. 6. In kind it is in vivo. Here is the method:
as §2, §3, §5

Read-outs that look alike come from different tables or passages of the source.

On to `CC12CCC3c4ccc(OS(N)(=O)=O)cc4CCC3C1CCC2=O` (stereo not shown) [EMATE, oestrone-3-sulphamate], for which, at E1-STS [1], the “mode of E1-STS inhibition (inactivation)” value was “time- and concentration-dependent manner”. In addition, the “inhibition of E1-STS activity” value on E1-STS [2] is given as “more than 99%”. In series [3], the “inhibition of DHEA-STS” value was “also inhibits”. Moreover, the effect on memory entry in series [4] was “memory enhancing effect”.
Take `NS(=O)(=O)Oc1ccc2c3c(c(=O)oc2c1)CCCCC3` [STX64]: the “growth of tumours derived from MCF 7STS cells” value in [5] is “could be inhibited”. Moreover, at STS, the “STS activity in peripheral and tumour tissues” value is on record as “effectively blocked STS activity”. For the same compound, in [6], the “growth of tumours derived from MCF-7AROM cells” value is “significant inhibition”. For the same compound, in [7] (Study 2, FIG. 12), the “tolerability, effects on animal weight” value is “well tolerated with no effects on animal weight”. Further, in series [8], the levels of androstenedione result was “reduced”, the levels of testosterone entry is “reduced” and the serum oestrogen concentrations entry is on record as “reducing serum oestrogen concentrations”. For the same compound, the “growth of tumours derived from MCF-7STS cells” value in series [9] is recorded as “significant inhibition”.
As to `CCCN1C(=O)CC2C3CCc4cc(OS(N)(=O)=O)ccc4C3CC[C@]2(C)C1=O` (stereo partly shown) [STX213], in series [5], the “growth of tumours derived from MCF 7STS cells” value is given as “could be inhibited”. Besides, the “toxic effects (animal growth)” value in [10] is given as “Neither STX213 nor letrozole appeared to have any toxic effects”. Besides, the “toxicity as shown by body weight” value in [10] (Study 1, at the dose tested, FIG. 7) is given as “devoid of any toxicity”. The “growth of MCF-7WT tumours” value with MCF-7WT tumours is recorded as “significantly reduced the growth”. The “growth of MCF-7STS+MCF-7AROM tumours” value in [11] was “significantly reduced the growth”.
Turning to `N#Cc1ccc(C(c2ccc(C#N)cc2)n2cncn2)cc1` [letrozole, reference compound], in series [10], the “toxic effects (animal growth)” value is given as “Neither STX213 nor letrozole appeared to have any toxic effects”. For the same compound, in series [6], the “growth of tumours derived from MCF-7AROM cells” value is reported as “significant inhibition”. In the series with MCF-7WT tumours, the “growth of MCF-7WT tumours” value is listed as “some reduction of tumour growth”. Further, in [7] (mouse, in vivo), the “tolerability, effects on animal weight” value is on record as “well tolerated with no effects on animal weight”. For the same compound, the “growth of tumours derived from MCF-7STS cells” value in series [9] is “did not affect the growth”. The “growth of MCF-7STS+MCF-7AROM tumours” value in series [11] is “some reduction of tumour growth”.
For oestrone-3-N-sulphamate, on E1-STS [1], the “mode of E1-STS inhibition (inactivation)” value is on record as “weaker non-time-dependent inactivators”.
Take oestrone-3-S-sulphamate: the “mode of E1-STS inhibition (inactivation)” value on E1-STS [1] is on record as “weaker non-time-dependent inactivators”.

Values taken from patent US20100105764A1 (priority 2006, published 2010).
